“Also recorded” adds a separate entry of the source.
How the values were obtained:
Assay type in all cases: cell-based
C2C12 cells [1] = assay: Expression of myogenic factors MyoG and MyHC by western blotting in C2C12 myoblasts; conditions: differentiation medium (2% horse serum DMEM), 3 days
Procedure: (§1) C2C12 cells, which are myoblasts, were cultured and treated with a mixture of Compound A in a differentiation medium [2% horse serum (Cat No. 16050, Invitrogen, USA)-containing DMEM (Cat No. 11965, Invitrogen)] for 3 days. Afterward, the change in expression of myogenin (myogenic factor 4, MyoG) and a myosin heavy chain (MyHC), which are known as myogenic factors, was confirmed by western blotting. As primary antibodies, a MyoG antibody (Santa Cruz, sc-12732), a MyHC antibody (Santa Cruz, sc-32732), and a beta-actin antibody (Santa Cruz, sc-47778) were used. As a result, it can be confirmed that the higher the treatment concentration of Compound A, the higher the expression of MyoG and MyHC (FIG. 1).
(§2) Since Compound A is known as a G-protein-coupled receptor40 agonist (GPR40 agonist), it was confirmed whether the myogenesis promoting effect (Experimental Example 1) of Compound A is a general effect of GPR40 agonists. Specifically, experiments were conducted in the same manner as in Experimental Examples 1 and 2, except that C2C12 cells were treated with LY2922470 instead of Compound A. As a result of the experiments, it can be seen that, when the C2C12 cells were treated with LY2922470, the expression of myogenic factors MyoG and MyHC was inhibited (FIG. 7), the MyHC positive area decreased, and myotube formation was inhibited (FIG. 8).

C2C12 cells [2] = assay: MyHC immunohistochemistry: MyHC positive area, myotube thickness and myotube formation; conditions: C2C12 myoblasts, differentiation medium, 3 days
Procedure: as §1
In addition, C2C12 cells were treated with Compound A in the same manner as above, and then immunohistochemistry was performed with a MyHC antibody. As a result, it was confirmed that, as the treatment concentration of Compound A increases, the MyHC positive area and myotube thickness increase (FIG. 2).
as §2

C2C12 cells [3] = assay: Bax/Bcl2 ratio by western blotting after palmitate treatment; conditions: with palmitate in growth medium, 24 hours, versus palmitate only
Procedure: (§3) Sarcopenia is known to be accelerated by diabetes, obesity, or inflammatory responses. Accordingly, it was confirmed whether Compound A can inhibit muscle loss even under the above conditions as follows. Palmitate (PA; P9767, Sigma-Aldrich, USA) was dissolved in ethanol and then mixed with bovine serum albumin (BSA; A7888, Sigma-Aldrich) dissolved in DMEM at a molar ratio of 6:1, followed by conjugation at 60° C. for 1 hour. Cells were treated with the resulting conjugate.
(§4) After mixing Compound A and the palmitate in a growth medium (10% FBS (Cat No. 16000, Invitrogen)-containing DMEM), C2C12 cells were treated with the resulting mixture for 24 hours, and then a Bax/Bcl2 ratio was confirmed by western blotting and cell viability was assessed using a cell viability assay kit (Dozen, EZ-3000). Primary antibodies used herein were the Bax antibody (Santa Cruz, sc-7480) and Bcl2 antibody (Santa Cruz, sc-7382). Bax is a protein inducing apoptosis, and Bcl2 is a protein inhibiting apoptosis by hindering the migration of Bax to mitochondria.

C2C12 cells [4] = assay: Cell viability assay kit after palmitate treatment; conditions: with palmitate in growth medium, 24 hours, versus palmitate only
Procedure: as §3, §4, §2

C2C12 cells [5] = assay: MyoG and MyHC expression after palmitate treatment and 3 days of differentiation; conditions: with palmitate 24 hours, then 3 days differentiation, versus decrease by palmitate only
Procedure: as §3
(§5) Compound A and the palmitate were mixed in a growth medium (10% FBS-containing DMEM), and C2C12 cells were treated with the resulting mixture. After 24 hours, the medium was exchanged with a fresh […] to induce differentiation for 3 days, and after 3 days, the cells were collected to confirm the expression of MyoG and MyHC, and the changes in MyHC positive area and myotube thickness.

C2C12 cells [6] = assay: MyHC positive area and myotube thickness after palmitate treatment and 3 days of differentiation; conditions: with palmitate 24 hours, then 3 days differentiation, versus decrease by palmitate only
Procedure: as §3, §5

C2C12 cells [7] = assay: Atrogin-1 expression in differentiated C2C12 myotubes treated with palmitate; conditions: C2C12 differentiated 6 days into myotubes, with palmitate in differentiation medium, versus palmitate only
Procedure: as §3
(§6) Atrogin-1 is a type of E3 ubiquitin ligase and a marker associated with muscular atrophy, and it is known that, as its gene expression increases, muscle is broken down. To confirm the change in atrogin-1 expression by Compound A, C2C12 cells were cultured in a differentiation medium for 6 days to induce differentiation into myotubes, and the differentiated cells were treated with a mixture of Compound A and palmitate in a differentiation medium. Afterward, an expression level was confirmed using an atrogin-1 antibody (Abnova, PAB15627), and cell viability was measured.

C2C12 cells [8] = assay: Cell viability of differentiated C2C12 myotubes treated with palmitate; conditions: C2C12 differentiated 6 days into myotubes, with palmitate in differentiation medium, versus palmitate only
Procedure: as §3, §6

[9] = immunohistochemistry with MyHC antibody

## CC#C[C@@H](CC(=O)O)c1ccc(OCc2cccc(C3=CCC4(CC3)OCCO4)c2)cc1 [Compound A, (3S)-3-(4-(3-(1,4-dioxaspiro[4,5]des-7-en-8-yl)benzyloxy)phenyl)hex-4-inoic acid]
C2C12 cells [1]
  expression of MyHC: higher
  expression of MyoG: higher
C2C12 cells [2]; [9]
  MyHC positive area: increase
  myotube thickness: increase
C2C12 cells [3]
  Bax/Bcl2 ratio: decreased
C2C12 cells [4]
  cell viability (apoptosis caused by palmitate): increased; also recorded: inhibited apoptosis
C2C12 cells [5]
  expression of MyHC: reversed
  expression of MyoG: reversed
C2C12 cells [6]
  MyHC positive area: reversed
  myotube thickness: reversed
C2C12 cells [7]
  atrogin-1 expression: decreased
C2C12 cells [8]
  cell viability: recovered

## CC#C[C@@H](CC(=O)O)c1ccc(OCc2ccc(CN3CCCc4cccc(OC)c43)s2)cc1 [LY2922470, reference compound]
C2C12 cells [1]
  expression of MyHC: inhibited
  expression of MyoG: inhibited
C2C12 cells [2]
  myotube formation: inhibited
C2C12 cells [2]; [9]
  MyHC positive area: decreased
C2C12 cells [4]
  cell viability (apoptosis caused by palmitate): did not inhibit apoptosis

## CC#C[C@@H](CC(=O)O)c1ccc(OCc2cccc(C3=CCC4(CC3)OCCO4)c2)cc1 [compound of Formula 1, (3S)-3-(4-(3-(1,4-dioxaspiro[4,5]des-7-en-8-yl)benzyloxy)phenyl)hex-4-inoic acid]
C2C12 cells [1]
  expression of MyHC: increases
  expression of MyoG: increases
C2C12 cells [2]
  myotube formation: promoted
C2C12 cells [3]
  Bax/Bcl2 ratio: reversed
C2C12 cells [4]
  cell viability (apoptosis caused by palmitate): reversed
C2C12 cells [5]
  expression of MyHC: reversed
  expression of MyoG: reversed
C2C12 cells [6]
  MyHC positive area: reversed
  myotube thickness: reversed
